Structures can show the parent of a compound that is named as a salt.
Experiments:
Type in all cases: in vivo
[1] = Acute toxicity, LD50 lethal dose after oral administration to mice; details: mouse, in vivo, po, orally
Procedure: (§1) (3) Determination of the acute toxicity
(§2) The LD50 lethal dose of the derivatives of Examples 1 to 9 after administration orally to mice was evaluated.

[2] = system: ulcers in rats at the level of the stomach; test: Anti-ulcer activity, SHAY technique (ligating of the pylorus); details: by mouth, about 16 hours after treatment
Excerpt: (1) Determination of the anti-ulcer activity of the compounds of Examples 1 to 4
The technique used is described by SHAY et al in Gastroenterology, 5, 43, (1945).
SHAY'S technique consists in inducing ulcers in rats at the level of the stomach by ligating of the pylorus.
The animals are anesthetized with ether. A longitudinal incision is made about 1 cm below the sternum, the glandular portion of the stomach and the duodenum are exposed and a ligature is applied a few millimeters below the pylorus. The muscular layer is left as is and the skin is sutured by two clips.
The animals immediately receive the dispersant or the substance to be studied by mouth in a volume of 0.5 cc per hundred grams and are kept without food or drink until sacrificed by carotic venesection, effected about 16 hours after the treatment.
Before removing the stomach, a ligature is placed around the cardia.
The gastric fluid is collected in order to measure the pH thereof.
The stomach is then opened along the greater curvature, rinsed in physiological serum and spread out on millimeter paper in order to be examined under a binocular lens.
The seriousness of the lesions is evaluated macroscopically, being rated from 0 to 4 for each stomach.
For each lot of rats the average intensity of the ulcerations is determined and the protection calculated by referring the average index of the group to the average index of the control group.
The pH values of the gastric liquid are also determined for the treated animals and the control animals.

[3] = system: mice; test: Acute toxicity, LD50 lethal dose after oral administration to mice; details: orally
Procedure: as §1, §2

[4] = system: gastric fluid; test: Anti-ulcer activity, SHAY technique as modified by P. H. Guth (pylorus ligature plus aspirin), pH of the gastric fluid; details: rats, orally, aspirin 200 mg/kg
Procedure: (2) Determination of the anti-ulcer activity of the compounds of Examples 7 and 8
The technique used is described by SHAY et al in Gastroenterology, 5, 43 (1945) as modified by P. H. Guth in Gastroenterology, 76, 88 (1976).
After 48 hours fast, rats receive the dispersant or the substance to be studied orally in a volume of 1 cc/100 g.
One hour later the animals are anesthetized with ether. A longitudinal incision is made about 1 cm below the sternum, the glandular part of the stomach and the duodenum are exposed and a ligature is placed a few millimeters below the pylorus. The muscular layer is sutured and the skin is clipped.
An hour later, 200 mg/kg of aspirin dispersed in a 1% suspension of methyl cellulose in water to which 150 millimoles of hydrochloric acid have been added are administered orally in a volume of 0.5 cc/100 g.
Two hours after this last administration, the animals are sacrificed by means of carbon dioxide.
Before removing the stomach, a ligature is placed above the cardia.
The gastric fluid is collected in order to measure its pH for the treated animals and the control animals.

For `COc1cc(C(=O)CC(O)C(=O)O)cc(OC)c1OC` (centres unmarked) [Example 3, 4-(3,4,5-trimethoxyphenyl)-4-oxo-2-hydroxy butanoic acid], the LD50 [1] was 1000 mg/kg, the “Ulcerization % Protection As Compared with the Controls” value ([2]; 100 mg/kg) was 45% and the “pH of the Gastric Fluid, Treated Animals” value ([2]; 100 mg/kg) was 3.7.
With `COc1cc(C(=O)/C=C/C(=O)O)cc(OC)c1OC` [Example 7, Morpholine salt of (E) 4-(3,4,5-trimethoxyphenyl)-4-oxo-2-butenoic acid] the LD50 [3] was greater than 400 mg/kg, the “pH of the Gastric Fluid, Treated Animals” value ([4]; 4 mg/kg) was 2 and the “pH of the Gastric Fluid, Treated Animals” value ([4]; 20 mg/kg) was 2.4. For the same compound, the “pH of the Gastric Fluid, Treated Animals” value ([4]; 100 mg/kg) was 4.1.
With `COc1cc(C(=O)/C=C/C(=O)O)cc(OC)c1OC` [Example 8, Sodium salt of (E)-4-(3,4,5-trimethoxyphenyl)-4-oxo-2-butenoic acid] the LD50 [3] was greater than 400 mg/kg, the “pH of the Gastric Fluid, Treated Animals” value ([4]; 0.8 mg/kg) was 2.3 and the “pH of the Gastric Fluid, Treated Animals” value ([4]; 4 mg/kg) was 2.2. The “pH of the Gastric Fluid, Treated Animals” value ([4]; 20 mg/kg) was 3 and the “pH of the Gastric Fluid, Treated Animals” value ([4]; 100 mg/kg) was 4.6.
For `COc1cc(C(=O)/C=C/C(=O)O)cc(OC)c1OC` [Example 4, (E)-4-(3,4,5-trimethoxyphenyl)-4-oxo-2-butenoic acid], the LD50 [1] was 600 mg/kg, the “Ulcerization % Protection As Compared with the Controls” value ([2]; 0.8 mg/kg) was 38% and the “pH of the Gastric Fluid, Treated Animals” value ([2]; 0.8 mg/kg) was 1.8. The “Ulcerization % Protection As Compared with the Controls” value ([2]; 4 mg/kg) was 65%, the “pH of the Gastric Fluid, Treated Animals” value ([2]; 4 mg/kg) was 3.0 and the “Ulcerization % Protection As Compared with the Controls” value ([2]; 20 mg/kg) was 98%. For the same compound, the “pH of the Gastric Fluid, Treated Animals” value ([2]; 20 mg/kg) was 2.4.
For `COc1cc(C(=O)/C=C/C(=O)O)cc(OC)c1OC` [Example 9, Piperidine salt of (E)-4-(3,4,5-trimethoxyphenyl)-4-oxo-2-butenoic acid], the LD50 [3] was greater than 400 mg/kg.
For `COc1cc(OC)c(C(=O)/C=C/C(=O)O)cc1OC` [Example 2, (E) 4-(2,4,5-trimethoxyphenyl)-4-oxo-2-butenoic acid], the LD50 [1] was 600 mg/kg, the “Ulcerization % Protection As Compared with the Controls” value ([2]; 4 mg/kg) was 72% and the “pH of the Gastric Fluid, Treated Animals” value ([2]; 4 mg/kg) was 3.6. The “Ulcerization % Protection As Compared with the Controls” value ([2]; 20 mg/kg) was 100% and the “pH of the Gastric Fluid, Treated Animals” value ([2]; 20 mg/kg) was 4.6.
`COc1cc(OC)c(C(=O)/C=C/C(=O)O)c(OC)c1` [Example 5, (E)-4-(2,4,6-trimethoxyphenyl)-4-oxo-2-butenoic acid] showed an LD50 [1] of 200 mg/kg.
In the case of `COc1cc(OC)c(C(=O)CC(O)C(=O)O)cc1OC` (centres unmarked) [Example 1, 4-(2,4,5-trimethoxyphenyl)-4-oxo-2-hydroxy butanoic acid], the LD50 [1] is reported as 1000 mg/kg, the “Ulcerization % Protection As Compared with the Controls” value ([2]; 100 mg/kg) is reported as 43% and the “pH of the Gastric Fluid, Treated Animals” value ([2]; 100 mg/kg) is reported as 2.5.
